Assay results reported in patent publication US20100184698A1, “USE OF A […] […] A […] AGENT” (priority 2007, published 2010).
Where no end group is shown, it is not given here.

Tests used:
[1] = test system: HIV-1IIIB; experiment: HIV-1 antiviral assay in CEM-SS cells
[2] = test system: hepatitis B virus (HBV) ayw strain in HepG2-2.2.15 cells; experiment: HBV experimental assay system (secreted HBV DNA, TaqMan PCR); format: cell-based; conditions: 10 micrograms per ml; 6 days; combination 0.95 mole peptide 1 and 1.05 mole peptide 2
[3] = test system: Interleukin-4 (IL-4) production in murine spleen cells; experiment: Th1/Th2 cytokine profiling assay: IL-4; format: cell-based, Balb/c mice; conditions: 10 micrograms per ml, Ovalbumin restimulation, 72 hours
[4] = test system: Interferon-γ (IFN-γ) production in murine spleen cells; experiment: Th1/Th2 cytokine profiling assay: IFN-γ; format: cell-based, Balb/c mice; conditions: 10 micrograms per ml; Ovalbumin restimulation, 72 hours; combination 0.95:1.05 mole
[5] = test system: Interleukin-2 (IL-2) production in murine spleen cells; experiment: Th1/Th2 cytokine profiling assay: IL-2; format: cell-based, Balb/c mice; conditions: 10 micrograms per ml; Ovalbumin restimulation, 72 hours
[6] = test system: Interleukin-5 (IL-5) production in murine spleen cells; experiment: Th1/Th2 cytokine profiling assay: IL-5; format: cell-based, Balb/c mice; conditions: 10 micrograms per ml, Ovalbumin restimulation, 72 hours
[7] = test system: Tumor Necrosis Factor-α (TNF-α) production in murine spleen cells; experiment: Th1/Th2 cytokine profiling assay: TNF-α; format: cell-based, Balb/c mice; conditions: 10 micrograms per ml, Ovalbumin restimulation, 72 hours
[8] = test system: Primary Human endothelial cells (HUVEC); experiment: Endothelial cell migration assay; format: cell-based; conditions: 10 micrograms per ml; 22 hours
Method: Thereafter, designated concentration of testing peptides—10 micrograms per ml—was added in duplicate wells.

[9] = test system: HUVEC; experiment: Endothelial tube formation assay; format: cell-based, human; conditions: 10 micrograms per ml; 20 hours
Description: Positive control was vehicle only.

[10] = test system: HCMV strain AD169; conditions: for inhibition of HCMV plaque formation as compared to the virus control experiment: 10 micrograms per ml, 7-10 days

CC(C)(C)NC(=O)[C@@H]1CN(Cc2cccnc2)CCN1C[C@@H](O)C[C@@H](Cc1ccccc1)C(=O)N[C@H]1c2ccccc2C[C@H]1O [indinavir]
antiviral activity of positive control compounds [1]: expected levels of antiviral activity

Ile-Asn-Leu-Lys-Ala-Leu-Ala-Ala-Leu-Ala-Lys-Lys-Ile-Leu-NH2 (INLKALAALAKKIL-NH2) [Peptide 2]
inhibition of HBV replication as compared to the virus control infection [2]: 40.6% | change of the production of IL-4 ([3]; combination 0.95:1.05 mole): did not significantly change | production of IFN-y, decreased by [4]: 54% | production of IL-2, increased by [5]: 77% | change of the production of IL-5 ([6]; combination 0.95:1.05 mole): did not significantly change | production of TNF-a, decreased by [7]: 61.3% | inhibition of the migration of human endothelial cells [8]: 23% | inhibition of the tube formation of human endothelial cells [9]: 10% | inhibition of HCMV plaque formation as compared to the virus control experiment [10]: did not inhibit

CCNC(=O)[C@@H]1CCCN1C(=O)[C@H](CCCN=C(N)N)NC(=O)[C@H](CC(C)C)NC(=O)[C@@H](Cc1c[nH]c2ccccc12)NC(=O)[C@H](Cc1ccc(O)cc1)NC(=O)[C@H](CO)NC(=O)[C@H](Cc1c[nH]c2ccccc12)NC(=O)[C@H](Cc1cnc[nH]1)NC(=O)[C@@H]1CCC(=O)N1 [Peptide 1, Pyr-His-Trp-Ser-Tyr-D-Trp-Leu-Arg-Pro-NHEt]
inhibition of HBV replication as compared to the virus control infection [2]: 15.1% | production of IL-4, induced by [3]: 32.1% | production of IFN-y, decreased by [4]: 31.4% | production of IL-2, decreased by [5]: 53.2% | production of IL-5, decreased by [6]: 27.6% | change of the production of TNF-alpha ([7]; combination 0.95:1.05 mole): did not significantly change | inhibition of the migration of human endothelial cells [8]: 3% | inhibition of the tube formation of human endothelial cells [9]: 7% | inhibition of HCMV plaque formation as compared to the virus control experiment [10]: did not inhibit

Nc1nc(O)c2ncn(COC(CO)CO)c2n1 [Ganciclovir, reference compound]
antiviral activity of positive control compound ([10]; positive control, MRC-5 cells, HCMV): expected levels of antiviral activity

Cc1cn([C@H]2C[C@H](N=[N+]=[N-])[C@@H](CO)O2)c(=O)[nH]c1=O [AZT]
antiviral activity of positive control compounds [1]: expected levels of antiviral activity
